In patent US20230139445A1, “BACTERIAL CELLS WITH IMPROVED TOLERANCE TO DIACIDS” (priority 2016, published 2023):
Read-outs that look alike come from different tables or passages of the source.

Tests used:
[1] = system: Escherichia coli K-12 MG1655 and evolved isolates; format: cell-based; details: 45 g/L fumaric acid
Procedure: (§1) Five colonies from wild-type K-12 MG1655 and 10 individual colonies deriving from each population were inoculated into 300 μL M9+1% glucose in 96 well deepwell plates and incubated in a 300 rpm plate shaker at 37° C. The next day, cells were diluted 10× in M9+1% glucose and 30 μL was transferred into clear-bottomed 96 well half-deepwell plates (with rectangular wells) containing M9+1% glucose and M9+1% glucose+52.78 g/L glutaric acid or 55.56 g/L adipic acid, such that the final concentration of glutaric acid or adipic acid was 47.5 g/L or 50 g/L, respectively. In addition, cryogenic glycerol stocks of the overnight culture were saved in a 96 well plate format. Half deepwell plates were incubated at 37° C. with 225 rpm shaking in a Growth Profiler (Enzyscreen), with optical scans of the plates taken at 15 minute intervals. Green pixel values integrated over a 1 mm diameter circular area in each well were converted to OD600 values using a previously determined calibration between OD600 and green pixel values.
(§2) Additionally, each evolved isolate was tested for cross-tolerance toward other dicarboxylic acids of interest. […] All diacids tested were either the neutral sodium salts, or the free diacid was neutralized with sodium hydroxide to pH 7.0 for testing.

[2] = system: Escherichia coli K-12 MG1655; assay: Growth of K-12 MG1655 in varying concentrations of fumaric, itaconic, malic and succinic acid, Growth Profiler; format: cell-based
Procedure: as §1, §2

With `O=C(O)/C=C/C(=O)O` [fumaric acid] the “growth rate μ (mean)” value ([1]; strain ADIP1-1) was 0.347 h⁻¹, the “lag time tlag (mean)” value ([1]; strain ADIP1-1) was 10.2 h and the “growth rate μ (mean)” value ([1]; strain ADIP1-9) was 0.328 h⁻¹. For the same compound, the “lag time tlag (mean)” value ([1]; strain ADIP1-9) was 9.8 h, the “growth rate μ (mean)” value ([1]; strain ADIP2-5) was 0.358 h⁻¹ and the “lag time tlag (mean)” value ([1]; strain ADIP2-5) was 11.4 h. The “growth rate μ (mean)” value ([1]; strain ADIP2-6) was 0.380 h⁻¹, the “lag time tlag (mean)” value ([1]; strain ADIP2-6) was 11.0 h and the “growth rate μ (mean)” value ([1]; strain ADIP2-10) was 0.353 h⁻¹. The “lag time tlag (mean)” value ([1]; strain ADIP2-10) was 11.0 h, the “growth rate μ (mean)” value ([1]; strain ADIP3-2) was 0.327 h⁻¹ and the “lag time tlag (mean)” value ([1]; strain ADIP3-2) was 9.4 h. For the same compound, the “growth rate μ (mean)” value ([1]; strain ADIP3-4) was 0.324 h⁻¹, the “lag time tlag (mean)” value ([1]; strain ADIP3-4) was 9.7 h and the “growth rate μ (mean)” value ([1]; strain ADIP3-8) was 0.343 h⁻¹. The “lag time tlag (mean)” value ([1]; strain ADIP3-8) was 10.1 h, the “growth rate μ (mean)” value ([1]; strain ADIP4-1) was 0.264 h⁻¹ and the “lag time tlag (mean)” value ([1]; strain ADIP4-1) was 11.9 h. For the same compound, the “growth rate μ (mean)” value ([1]; strain ADIP4-8) was 0.254 h⁻¹, the “lag time tlag (mean)” value ([1]; strain ADIP4-8) was 12.4 h and the “growth rate μ (mean)” value ([1]; strain ADIP5-2) was 0.280 h⁻¹. The “lag time tlag (mean)” value ([1]; strain ADIP5-2) was 10.6 h, the “growth rate μ (mean)” value ([1]; strain ADIP5-6) was 0.444 h⁻¹ and the “lag time tlag (mean)” value ([1]; strain ADIP5-6) was 9.0 h. For the same compound, the “growth rate μ (mean)” value ([1]; strain ADIP6-3) was 0.275 h⁻¹, the “lag time tlag (mean)” value ([1]; strain ADIP6-3) was 11.3 h and the “growth rate μ (mean)” value ([1]; strain ADIP6-9) was 0.250 h⁻¹. For the same compound, the “lag time tlag (mean)” value ([1]; strain ADIP6-9) was 12.3 h, the “growth rate μ (mean)” value ([1]; strain ADIP6-10) was 0.308 h⁻¹ and the “lag time tlag (mean)” value ([1]; strain ADIP6-10) was 10.0 h. For the same compound, the “growth rate μ (mean)” value ([1]; strain ADIP7-2) was 0.312 h⁻¹, the “lag time tlag (mean)” value ([1]; strain ADIP7-2) was 10.1 h and the “growth rate μ (mean)” value ([1]; strain ADIP7-5) was 0.326 h⁻¹. The “lag time tlag (mean)” value ([1]; strain ADIP7-5) was 10.0 h, the “growth rate μ (mean)” value ([1]; strain ADIP8-3) was 0.202 h⁻¹ and the “lag time tlag (mean)” value ([1]; strain ADIP8-3) was 14.4 h. The “growth rate μ (mean)” value ([1]; strain ADIP8-7) was 0.188 h⁻¹, the “lag time tlag (mean)” value ([1]; strain ADIP8-7) was 16.1 h and the “growth rate μ (mean)” value ([1]; strain ADIP8-10) was 0.221 h⁻¹. For the same compound, the “lag time tlag (mean)” value ([1]; strain ADIP8-10) was 14.3 h, the “growth rate μ (mean)” value ([1]; strain GLUT1-3) was 0.293 h⁻¹ and the “lag time tlag (mean)” value ([1]; strain GLUT1-3) was 13.3 h. The “growth rate μ (mean)” value ([1]; strain GLUT1-9) was 0.274 h⁻¹, the “lag time tlag (mean)” value ([1]; strain GLUT1-9) was 14.9 h and the “growth rate μ (mean)” value ([1]; strain GLUT1-10) was 0.289 h⁻¹. For the same compound, the “lag time tlag (mean)” value ([1]; strain GLUT1-10) was 18.9 h, the “growth rate μ (mean)” value ([1]; strain GLUT2-1) was 0.277 h⁻¹ and the “lag time tlag (mean)” value ([1]; strain GLUT2-1) was 13.5 h. The “growth rate μ (mean)” value ([1]; strain GLUT2-9) was 0.267 h⁻¹, the “lag time tlag (mean)” value ([1]; strain GLUT2-9) was 12.2 h and the “growth rate μ (mean)” value ([1]; strain GLUT2-10) was 0.312 h⁻¹. For the same compound, the “lag time tlag (mean)” value ([1]; strain GLUT2-10) was 12.3 h, the “growth rate μ (mean)” value ([1]; strain GLUT3-5) was 0.263 h⁻¹ and the “lag time tlag (mean)” value ([1]; strain GLUT3-5) was 16.6 h. The “growth rate μ (mean)” value ([1]; strain GLUT3-7) was 0.264 h⁻¹, the “lag time tlag (mean)” value ([1]; strain GLUT3-7) was 16.2 h and the “growth rate μ (mean)” value ([1]; strain GLUT3-9) was 0.305 h⁻¹. The “lag time tlag (mean)” value ([1]; strain GLUT3-9) was 24.3 h, the “growth rate μ (mean)” value ([1]; strain GLUT4-1) was 0.295 h⁻¹ and the “lag time tlag (mean)” value ([1]; strain GLUT4-1) was 14.6 h. The “growth rate μ (mean)” value ([1]; strain GLUT4-4) was 0.287 h⁻¹, the “lag time tlag (mean)” value ([1]; strain GLUT4-4) was 15.3 h and the “growth rate μ (mean)” value ([1]; strain GLUT4-10) was 0.274 h⁻¹. The “lag time tlag (mean)” value ([1]; strain GLUT4-10) was 16.3 h, the “growth rate μ (mean)” value ([1]; strain GLUT5-4) was 0.386 h⁻¹ and the “lag time tlag (mean)” value ([1]; strain GLUT5-4) was 14.1 h. For the same compound, the “growth rate μ (mean)” value ([1]; strain GLUT5-5) was 0.375 h⁻¹, the “lag time tlag (mean)” value ([1]; strain GLUT5-5) was 15.1 h and the “growth rate μ (mean)” value ([1]; strain GLUT5-9) was 0.370 h⁻¹. The “lag time tlag (mean)” value ([1]; strain GLUT5-9) was 14.9 h, the “growth rate μ (mean)” value ([1]; strain GLUT6-4) was 0.281 h⁻¹ and the “lag time tlag (mean)” value ([1]; strain GLUT6-4) was 13.8 h. The “growth rate μ (mean)” value ([1]; strain GLUT6-5) was 0.279 h⁻¹, the “lag time tlag (mean)” value ([1]; strain GLUT6-5) was 13.2 h and the “growth rate μ (mean)” value ([1]; strain GLUT6-10) was 0.277 h⁻¹. For the same compound, the “lag time tlag (mean)” value ([1]; strain GLUT6-10) was 14.2 h, the “growth rate μ (mean)” value ([1]; strain GLUT7-2) was 0.304 h⁻¹ and the “lag time tlag (mean)” value ([1]; strain GLUT7-2) was 14.6 h. The “growth rate μ (mean)” value ([1]; strain GLUT7-6) was 0.261 h⁻¹, the “lag time tlag (mean)” value ([1]; strain GLUT7-6) was 19.5 h and the “growth rate μ (mean)” value ([1]; strain GLUT7-7) was 0.193 h⁻¹. The “lag time tlag (mean)” value ([1]; strain GLUT7-7) was 22.0 h, the “growth rate μ (mean)” value ([1]; strain GLUT8-5) was 0.247 h⁻¹ and the “lag time tlag (mean)” value ([1]; strain GLUT8-5) was 14.4 h. For the same compound, the “growth rate μ (mean)” value ([1]; strain GLUT8-6) was 0.272 h⁻¹, the “lag time tlag (mean)” value ([1]; strain GLUT8-6) was 43.5 h and the “growth rate μ (mean)” value ([1]; strain GLUT8-9) was 0.196 h⁻¹. The “lag time tlag (mean)” value ([1]; strain GLUT8-9) was 54.3 h, the “growth rate μ (mean)” value ([1]; strain MG1655 (Table 26)) was 0.216 h⁻¹ and the “lag time tlag (mean)” value ([1]; strain MG1655 (Table 26)) was 16.6 h. For the same compound, the “growth rate μ (mean)” value ([1]; strain MG1655 (Table 27)) was 0.212 h⁻¹, the “lag time tlag (mean)” value ([1]; strain MG1655 (Table 27)) was 15.5 h and the “μ (mean)” value ([2]; growth rate of K-12 MG1655, 10 g/L diacid (sodium salt)) was 0.662 h^1. For the same compound, the “μ (mean)” value ([2]; growth rate of K-12 MG1655, 20 g/L diacid (sodium salt)) was 0.615 h^1, the “μ (mean)” value ([2]; growth rate of K-12 MG1655, 30 g/L diacid (sodium salt)) was 0.482 h^1 and the “μ (mean)” value ([2]; growth rate of K-12 MG1655, 40 g/L diacid (sodium salt)) was 0.285 h^1. For the same compound, the “μ (mean)” value ([2]; growth rate of K-12 MG1655, 50 g/L diacid (sodium salt)) was 0.116 h^1, the “tlag (mean)” value ([2]; lag time of K-12 MG1655, 10 g/L diacid (sodium salt)) was 5.8 h and the “tlag (mean)” value ([2]; lag time of K-12 MG1655, 20 g/L diacid (sodium salt)) was 6.9 h. For the same compound, the “tlag (mean)” value ([2]; lag time of K-12 MG1655, 30 g/L diacid (sodium salt)) was 9.5 h, the “tlag (mean)” value ([2]; lag time of K-12 MG1655, 40 g/L diacid (sodium salt)) was 15.4 h and the “tlag (mean)” value ([2]; lag time of K-12 MG1655, 50 g/L diacid (sodium salt)) was 30.2 h.
